Test results taken from the supplement of paper PMC10307832.

Tests used:
Test in all cases: relative viability (nuclei count vs DMSO), 5 days (fraction); higher = more cells survive
COR-L 105 = tested on: COR-L 105
Procedure, shortened: (§1)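 Relative viability divides the nuclei count in treated wells by that in vehicle wells. Lung cancer cell lines were seeded in 1536-well plates, dosed by pin tool the next day, and fixed and stained after 5 days in one step with final 0.05% Triton X-100, 1% formaldehyde and 1 ug/ml Hoechst. Dosing was a single drug or a fixed anchor-drug dose plus five library-drug doses (not always all listed) in √10 steps, and values are medians of duplicate plates imaged at 4×.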

A-427 = tested on: A-427
Procedure, shortened: as §1

NCI-H441 = tested on: NCI-H441
Procedure, shortened: as §1

NCI-H1792 = tested on: NCI-H1792
Procedure, shortened: as §1

NCI-H23 = tested on: NCI-H23
Procedure, shortened: as §1

EMC-BAC-2 = tested on: EMC-BAC-2
Procedure, shortened: as §1

ChaGo-K-1 = tested on: ChaGo-K-1
Procedure, shortened: as §1

NCI-H1975 = tested on: NCI-H1975
Procedure, shortened: as §1

H3255 = tested on: H3255
Procedure, shortened: as §1

NCI-H1666 = tested on: NCI-H1666
Procedure, shortened: as §1

NCI-H596 = tested on: NCI-H596
Procedure, shortened: as §1

NCI-H1755 = tested on: NCI-H1755
Procedure, shortened: as §1

NCI-H520 = tested on: NCI-H520
Procedure, shortened: as §1

NCI-H2170 = tested on: NCI-H2170
Procedure, shortened: as §1

NCI-H1563 = tested on: NCI-H1563
Procedure, shortened: as §1

SK-MES-1 = tested on: SK-MES-1
Procedure, shortened: as §1

EKVX = tested on: EKVX
Procedure, shortened: as §1

PC-3 [JPC-3] = tested on: PC-3 [JPC-3]
Procedure, shortened: as §1

LOU-NH91 = tested on: LOU-NH91
Procedure, shortened: as §1

LK-2 = tested on: LK-2
Procedure, shortened: as §1

NCI-H1734 = tested on: NCI-H1734
Procedure, shortened: as §1

SW 900 = tested on: SW 900
Procedure, shortened: as §1

CC1(C)CCC(c2ccc(Cl)cc2)=C(CN2CCN(c3ccc(C(=O)NS(=O)(=O)c4ccc(N[C@H](CCN5CCOCC5)CSc5ccccc5)c(S(=O)(=O)C(F)(F)F)c4)cc3)CC2)C1 [Navitoclax] + CCNC(=O)c1noc(-c2cc(C(C)C)c(O)cc2O)c1-c1ccc(CN2CCOCC2)cc1 [Luminespib] (partner 0.01 µM)
relative viability (COR-L 105; first compound 0.005 µM): 0.801
relative viability (COR-L 105; first compound 0.01581 µM): 1.2
relative viability (COR-L 105; first compound 0.05 µM): 0.974
relative viability (COR-L 105; first compound 0.1581 µM): 0.701
relative viability (COR-L 105; first compound 0.5 µM): 0.544
relative viability (A-427; first compound 0.005 µM): 0.902
relative viability (A-427; first compound 0.01581 µM): 0.833
relative viability (A-427; first compound 0.05 µM): 0.804
relative viability (A-427; first compound 0.1581 µM): 0.908
relative viability (A-427; first compound 0.5 µM): 0.948
relative viability (NCI-H441; first compound 0.005 µM): 0.294
relative viability (NCI-H441; first compound 0.01581 µM): 0.288
relative viability (NCI-H441; first compound 0.05 µM): 0.42
relative viability (NCI-H441; first compound 0.1581 µM): 0.351
relative viability (NCI-H441; first compound 0.5 µM): 0.336
relative viability (NCI-H1792; first compound 0.005 µM): 0.456
relative viability (NCI-H1792; first compound 0.01581 µM): 0.685
relative viability (NCI-H1792; first compound 0.05 µM): 0.351
relative viability (NCI-H1792; first compound 0.5 µM): 0.527
relative viability (NCI-H23; first compound 0.005 µM): 0.223
relative viability (NCI-H23; first compound 0.01581 µM): 0.218
relative viability (NCI-H23; first compound 0.05 µM): 0.224
relative viability (NCI-H23; first compound 0.1581 µM): 0.213
relative viability (NCI-H23; first compound 0.5 µM): 0.209
relative viability (EMC-BAC-2; first compound 0.005 µM): 1.09
relative viability (EMC-BAC-2; first compound 0.01581 µM): 1.24
relative viability (EMC-BAC-2; first compound 0.05 µM): 1.08
relative viability (EMC-BAC-2; first compound 0.1581 µM): 1.13
relative viability (EMC-BAC-2; first compound 0.5 µM): 1.12
relative viability (ChaGo-K-1; first compound 0.005 µM): 0.708
relative viability (ChaGo-K-1; first compound 0.01581 µM): 0.593
relative viability (ChaGo-K-1; first compound 0.05 µM): 0.306
relative viability (ChaGo-K-1; first compound 0.1581 µM): 0.578
relative viability (ChaGo-K-1; first compound 0.5 µM): 0.636
relative viability (NCI-H1975; first compound 0.005 µM): 0.24
relative viability (NCI-H1975; first compound 0.01581 µM): 0.309
relative viability (NCI-H1975; first compound 0.05 µM): 0.191
relative viability (NCI-H1975; first compound 0.1581 µM): 0.118
relative viability (NCI-H1975; first compound 0.5 µM): 0.132
relative viability (H3255; first compound 0.005 µM): 0.874
relative viability (H3255; first compound 0.01581 µM): 0.877
relative viability (H3255; first compound 0.05 µM): 0.834
relative viability (H3255; first compound 0.1581 µM): 0.869
relative viability (H3255; first compound 0.5 µM): 0.741
relative viability (NCI-H1666; first compound 0.005 µM): 0.881
relative viability (NCI-H1666; first compound 0.01581 µM): 0.969
relative viability (NCI-H1666; first compound 0.05 µM): 0.989
relative viability (NCI-H1666; first compound 0.1581 µM): 1.05
relative viability (NCI-H1666; first compound 0.5 µM): 1.05
relative viability (NCI-H596; first compound 0.005 µM): 0.34
relative viability (NCI-H596; first compound 0.01581 µM): 1.14
relative viability (NCI-H596; first compound 0.1581 µM): 0.867
relative viability (NCI-H596; first compound 0.5 µM): 0.443
relative viability (NCI-H1755; first compound 0.005 µM): 0.381
relative viability (NCI-H1755; first compound 0.01581 µM): 0.393
relative viability (NCI-H1755; first compound 0.05 µM): 0.332
relative viability (NCI-H1755; first compound 0.1581 µM): 0.173
relative viability (NCI-H1755; first compound 0.5 µM): 0.426
relative viability (NCI-H520; first compound 0.005 µM): 0.249
relative viability (NCI-H520; first compound 0.01581 µM): 0.234
relative viability (NCI-H520; first compound 0.05 µM): 0.268
relative viability (NCI-H520; first compound 0.1581 µM): 0.235
relative viability (NCI-H520; first compound 0.5 µM): 0.229
relative viability (NCI-H2170; first compound 0.005 µM): 0.519
relative viability (NCI-H2170; first compound 0.01581 µM): 0.806
relative viability (NCI-H2170; first compound 0.05 µM): 0.552
relative viability (NCI-H2170; first compound 0.1581 µM): 0.67
relative viability (NCI-H2170; first compound 0.5 µM): 0.538
relative viability (NCI-H1563; first compound 0.005 µM): 0.53
relative viability (NCI-H1563; first compound 0.01581 µM): 0.507
relative viability (NCI-H1563; first compound 0.05 µM): 0.485
relative viability (NCI-H1563; first compound 0.1581 µM): 0.557
relative viability (NCI-H1563; first compound 0.5 µM): 0.475
relative viability (SK-MES-1; first compound 0.005 µM): 0.665
relative viability (SK-MES-1; first compound 0.01581 µM): 0.985
relative viability (SK-MES-1; first compound 0.05 µM): 0.959
relative viability (SK-MES-1; first compound 0.1581 µM): 0.743
relative viability (SK-MES-1; first compound 0.5 µM): 0.856
relative viability (EKVX; first compound 0.005 µM): 0.94
relative viability (EKVX; first compound 0.01581 µM): 1.01
relative viability (EKVX; first compound 0.05 µM): 0.663
relative viability (EKVX; first compound 0.1581 µM): 0.784
relative viability (EKVX; first compound 0.5 µM): 0.785
relative viability (PC-3 [JPC-3]; first compound 0.005 µM): 0.738
relative viability (PC-3 [JPC-3]; first compound 0.01581 µM): 0.807
relative viability (PC-3 [JPC-3]; first compound 0.05 µM): 0.765
relative viability (PC-3 [JPC-3]; first compound 0.1581 µM): 0.684
relative viability (PC-3 [JPC-3]; first compound 0.5 µM): 0.724
relative viability (LOU-NH91; first compound 0.005 µM): 0.349
relative viability (LOU-NH91; first compound 0.01581 µM): 0.362
relative viability (LOU-NH91; first compound 0.05 µM): 0.327
relative viability (LOU-NH91; first compound 0.1581 µM): 0.321
relative viability (LOU-NH91; first compound 0.5 µM): 0.275
relative viability (LK-2; first compound 0.005 µM): 0.204
relative viability (LK-2; first compound 0.01581 µM): 0.191
relative viability (LK-2; first compound 0.05 µM): 0.202
relative viability (LK-2; first compound 0.1581 µM): 0.191
relative viability (LK-2; first compound 0.5 µM): 0.195
relative viability (NCI-H1734; first compound 0.005 µM): 0.174
relative viability (NCI-H1734; first compound 0.01581 µM): 0.191
relative viability (NCI-H1734; first compound 0.1581 µM): 0.182
relative viability (NCI-H1734; first compound 0.5 µM): 0.16
relative viability (SW 900; first compound 0.005 µM): 0.146
relative viability (SW 900; first compound 0.01581 µM): 0.163
relative viability (SW 900; first compound 0.05 µM): 0.177
relative viability (SW 900; first compound 0.1581 µM): 0.199
relative viability (SW 900; first compound 0.5 µM): 0.132
